Data on 30 molecules can be found in patent US20060223792A1, “Phenyl and pyridyl LTA4H modulators” (priority 2005, published 2006).

The target of the experiment is T1, recombinant human LTA4 hydrolase (rhLTA4H) (Homo sapiens, UniProt P09960).
T1 construct: made in house; host or cells: Spodoptera frugiperda (Sf-9) cells, baculovirus (pFastBac1)
T1 sequence (P09960 1-611): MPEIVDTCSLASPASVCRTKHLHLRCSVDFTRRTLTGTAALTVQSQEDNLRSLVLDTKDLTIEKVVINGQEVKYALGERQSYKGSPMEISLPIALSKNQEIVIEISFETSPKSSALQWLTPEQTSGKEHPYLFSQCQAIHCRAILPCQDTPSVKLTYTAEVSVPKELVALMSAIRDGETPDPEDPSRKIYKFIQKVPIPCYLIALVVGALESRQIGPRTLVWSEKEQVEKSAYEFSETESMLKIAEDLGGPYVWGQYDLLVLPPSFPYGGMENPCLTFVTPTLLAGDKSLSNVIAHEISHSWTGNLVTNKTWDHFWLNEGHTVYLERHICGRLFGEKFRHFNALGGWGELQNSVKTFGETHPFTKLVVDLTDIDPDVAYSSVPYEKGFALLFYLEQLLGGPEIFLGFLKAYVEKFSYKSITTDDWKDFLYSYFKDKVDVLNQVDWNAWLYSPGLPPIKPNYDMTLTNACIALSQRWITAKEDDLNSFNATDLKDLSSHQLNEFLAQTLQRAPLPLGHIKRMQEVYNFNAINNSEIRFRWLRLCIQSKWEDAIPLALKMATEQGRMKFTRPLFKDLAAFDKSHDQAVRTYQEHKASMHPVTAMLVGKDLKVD
As to the kind of experiment: Recombinant human LTA4 hydrolase assay for LTA4 hydrolase inhibitor activity. The format is biochemical. Conditions: recombinant human LTA4H, LTB4 quantified by enzyme-linked immunoassay; average of one to three determinations; read-out: IC50. As to the method: Recombinant Human LTA4 Hydrolase Assay for LTA4 Hydrolase Inhibitor Activity
Compounds of the present invention were tested for LTA4 hydrolase inhibitor activity against recombinant human LTA4 hydrolase (rhLTA4H). Vectors were prepared and used to express rhLTA4H essentially as follows: LTA4 hydrolase encoding DNA was amplified by polymerase chain reaction (PCR) using a human placental cDNA library as a template. Oligonucleotide primers for the PCR reaction were based on the 5′-end, and the complement of the 3′-end, of the published nucleotide sequence for the coding region of the human LTA4 hydrolase gene (C. D. Funk et al., Proc. Natl. Acad. Sci. USA 1987, 84:6677-6681). The amplified […] DNA fragment encoding LTA4 hydrolase was isolated and cloned into the pFastBac1 vector (Invitrogen). Recombinant baculovirus was generated as described by the manufacturer, and used to infect Spodoptera frugiperda (Sf-9) cells. Recombinant LTA4 hydrolase enzyme was purified from the infected Sf-9 cells essentially as described by J. K. Gierse et al. (Protein Expr. Purif. 1993, 4(5):358-366). The purified enzyme solution was adjusted to contain 0.29 mg/mL LTA4 hydrolase, 50 mM Tris (pH 8.0),150 mM NaCl, 5 mM dithiothreitol, 50% glycerol, and EDTA-free Complete protease inhibitor cocktail (Roche). The specific activity of the enzyme was about 3.8 μmol/min/mg.
LTA4 substrate was prepared from the methyl ester of LTA4 (Cayman Chemical) by treatment with 67 equiv. of NaOH under nitrogen at rt for 40 min. The LTA4 substrate in its free acid form was kept frozen at −80° C. until needed. Each compound was diluted to different concentrations in assay buffer (0.1 M potassium phosphate (pH 7.4), 5 mg/mL fatty acid free BSA) containing 10% DMSO. A 25-μL aliquot of each compound dilution was incubated for 10 min at rt with an equal volume of assay buffer containing 36 ng of recombinant human LTA4H. The solution was then adjusted to 200 μL with assay buffer. LTA4 (free acid) was thawed and diluted in assay buffer to a concentration of 357 ng/mL, and 25 μL (9 ng) of LTA4 substrate was added to the reaction mixture (total volume=225 μL) at time zero. Each reaction was carried out at rt for 10 min. The reaction was stopped by diluting 10 μL of the reaction mixture with 200 μL of assay buffer. LTB4 was quantifiedin the diluted sample by a commercially available enzyme-linked immunoassay (Cayman Chemical Co.), as recommended by the manufacturer. Positive controls, under essentially identical conditions but without addition of an inhibitor compound, and negative controls, containing all assay components except enzyme, were routinely run in each experiment. IC50 values were determined by fitting the activity data at different compound concentrations to a 4-parameter equation using the Grafit program (Erithacus software).
The IC50 values presented in the table below should be expected to fall within the typical three-fold variability of assays of this type. The values presented here are, in general, an average of one to three determinations.

Regarding `CN(CCC(=O)O)CCc1ccc(OCCc2ccccc2)cc1` [Example 88, 3-{Methyl-[2-(4-phenethyloxy-phenyl)-ethyl]-amino}-propionic acid], the IC50 was 0.004 µM.
Consider `CCOC(=O)CCN(CCc1ccc(OCCc2ccccc2)cc1)C1CCN(C(C)=O)CC1` [Example 90, 3-{(1-Acetyl-piperidin-4-yl)-[2-(4-phenethyloxy-phenyl)-ethyl]-amino}-propionic acid ethyl ester], for which the IC50 was 0.021 µM.
The same measure for `CC(=O)N1CCC(N(CCC(=O)O)CCc2ccc(OCCc3ccccc3)cc2)CC1` [Example 91, 3-{(1-Acetyl-piperidin-4-yl)-[2-(4-phenethyloxy-phenyl)-ethyl]-amino}-propionic acid]: 0.0007 µM; for `O=C(O)C1CCN(CCc2ccc(OCC(O)c3ccccc3)cc2)CC1` (stereo not drawn) [Example 92]: 0.081 µM; for `O=C(O)C1CCN(Cc2ccc(OCCc3ccccc3)nc2)CC1` [Example 94, 1-(6-Phenethyloxy-pyridin-3-ylmethyl)-piperidine-4-carboxylic acid]: 0.254 µM.
Take `c1ccc(CCOc2ccc(CN3CCCCC3)cc2)cc1` [Example 95, 1-(4-Phenethyloxy-benzyl)-piperidine]: the IC50 is 0.036 µM.
Regarding `c1ccc(CCCOc2ccc(CN3CCCCC3)cc2)cc1` [Example 97, 1-[4-(3-Phenyl-propoxy)-benzyl]-piperidine], the IC50 came out at 0.031 µM.
Next, `c1ccc(CCCCOc2ccc(CN3CCCCC3)cc2)cc1` [Example 98, 1-[4-(4-Phenyl-butoxy)-benzyl]-piperidine]: 0.167 µM; `O=C1NCCC12CCN(Cc1ccc(OCCc3ccccc3)cc1)CC2` [Example 100, 8-(4-Phenethyloxy-benzyl)-2,8-diaza-spiro[4.5]decan-1-one]: 0.121 µM; `NC(=O)C1CCN(Cc2ccc(OCCc3ccccc3)cc2)CC1` [Example 101, 1-(4-Phenethyloxy-benzyl)-piperidine-4-carboxylic acid amide]: 0.028 µM.
The same measure for `NC(=O)C1CCCN(Cc2ccc(OCCc3ccccc3)cc2)C1` (stereo not drawn) [Example 102, 1-(4-Phenethyloxy-benzyl)-piperidine-3-carboxylic acid amide]: 0.036 µM.
Turning to `OC1CCN(Cc2ccc(OCCc3ccccc3)cc2)CC1` [Example 103, 1-(4-Phenethyloxy-benzyl)-piperidin-4-ol], the IC50 came out at 0.07 µM.
The same measure for `NC1CCN(Cc2ccc(OCCc3ccccc3)cc2)CC1` [Example 105, 1-(4-Phenethyloxy-benzyl)-piperidin-4-ylamine]: 0.025 µM; for `CCOC(=O)C1CCN(Cc2ccc(OCCCc3ccccc3)cc2)CC1` [Example 106, 1-[4-(3-Phenyl-propoxy)-benzyl]-piperidine-4-carboxylic acid ethyl ester]: 0.154 µM; for `OC1CCN(Cc2ccc(OCCCc3ccccc3)cc2)CC1` [Example 108, 1-[4-(3-Phenyl-propoxy)-benzyl]-piperidin-4-ol]: 0.016 µM.
Next, `OC1CCCN(Cc2ccc(OCCCc3ccccc3)cc2)C1` (stereo not drawn) [Example 109, 1-[4-(3-Phenyl-propoxy)-benzyl]-piperidin-3-ol]: 0.023 µM; `NC(=O)C1CCN(Cc2ccc(OCCCc3ccccc3)cc2)CC1` [Example 110, 1-[4-(3-Phenyl-propoxy)-benzyl]-piperidine-4-carboxylic acid amide]: 0.009 µM; `NC(=O)C1CCCN(Cc2ccc(OCCCc3ccccc3)cc2)C1` (stereo not drawn) [Example 111, 1-[4-(3-Phenyl-propoxy)-benzyl]-piperidine-3-carboxylic acid amide]: 0.095 µM.
The same measure for `NC(=O)NC1CCN(Cc2ccc(OCCc3ccccc3)cc2)CC1` [Example 114, [1-(4-Phenethyloxy-benzyl)-piperidin-4-yl]-urea]: 0.017 µM.
For the molecule `COC(=O)NC1CCN(Cc2ccc(OCCc3ccccc3)cc2)CC1` [Example 115, [1-(4-Phenethyloxy-benzyl)-piperidin-4-yl]-carbamic acid methyl ester], the IC50 was 0.078 µM.
Next, `CCOC(=O)C1CCN(CCOc2ccc(OCCCc3ccccc3)cc2)CC1` [Example 116, 1-{2-[4-(3-Phenyl-propoxy)-phenoxy]-ethyl}-piperidine-4-carboxylic acid ethyl ester]: 0.195 µM; `NC1CCN(Cc2ccc(OCCCc3ccccc3)cc2)CC1` [Example 118, 1-[4-(3-Phenyl-propoxy)-benzyl]-piperidin-4-ylamine]: 0.04 µM.
Regarding `COC(=O)NC1CCN(Cc2ccc(OCCCc3ccccc3)cc2)CC1` [Example 121, {1-[4-(3-Phenyl-propoxy)-benzyl]-piperidin-4-yl}-carbamic acid methyl ester], the IC50 was 0.008 µM.
For `NC(=O)NC1CCN(Cc2ccc(OCCCc3ccccc3)cc2)CC1` [Example 122, {1-[4-(3-Phenyl-propoxy)-benzyl]-piperidin-4-yl}-urea], the IC50 worked out at 0.035 µM.
The same measure for `O=C(Oc1ccc(OCCN2CCCCC2)cc1)C(Cl)c1ccccc1` (stereo not drawn) [Example 123, Chloro-phenyl-acetic acid 4-(2-piperidin-1-yl-ethoxy)-phenyl ester]: 0.15 µM; for `O=C(Oc1ccc(OCCN2CCCCC2)cc1)C1Cc2ccccc2C1` [Example 124, Indan-2-carboxylic acid 4-(2-piperidin-1-yl-ethoxy)-phenyl ester]: 0.184 µM; for `OC1c2ccccc2CC1Oc1ccc(OCCN2CCCCC2)cc1` (stereo not drawn) [Example 125, 2-[4-(2-Piperidin-1-yl-ethoxy)-phenoxy]-indan-1-ol]: 0.192 µM.
The same measure for `O=C1c2ccccc2CC1Oc1ccc(OCCN2CCCCC2)cc1` (stereo not drawn) [Example 126, 2-[4-(2-Piperidin-1-yl-ethoxy)-phenoxy]-indan-1-one]: 0.064 µM; for `Fc1cccc(CCOc2ccc(OCCN3CCCCC3)cc2)c1` [Example 165, 1-(2-{4-[2-(3-Fluoro-phenyl)-ethoxy]-phenoxy}-ethyl)-piperidine]: 0.9 µM; for `Fc1ccc(CCOc2ccc(OCCN3CCCCC3)cc2)cc1` [Example 166, 1-(2-{4-[2-(4-Fluoro-phenyl)-ethoxy]-phenoxy}-ethyl)-piperidine]: 0.248 µM.
